From US20020137929A1, “1 - (3-heterocyclylphenyl) isothiourea, -isourea, -guanidine and -amidine herbicidal agents” (Intellectual Property Department, BASF Aktiengesellschaft, priority 1998, published 2002)

Key:
ABUTH (Velvetleaf) = assay: Postemergence herbicidal evaluation; format: in vivo, Abutilon theophrasti; settings: for ABUTH herbicidal rating: postemergence
Summary of the method: (§1)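 Compound is applied as a foliar spray to seedlings about two weeks old, formulated in equal parts acetone and water with 0.5% TWEEN 20 and delivered at 40 psi to give about 0.0156–0.500 kg per hectare. Injury is rated visually 0–9 after four to five weeks.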

AMBEL (Ragweed, Common) [1] = assay: Postemergence herbicidal evaluation; format: in vivo, Ambrosia artemisifolia; settings: for AMBEL herbicidal rating: postemergence
Summary of the method: as §1

[2] = test system: CHEAL (Lambsquarters, Common); assay: Postemergence herbicidal evaluation; format: in vivo, Chenopodium album; settings: for CHEAL herbicidal rating: postemergence
Summary of the method: as §1

ECHCG (Barnyardgrass) = assay: Postemergence herbicidal evaluation; format: in vivo, Echinochloa crus-galli; settings: for ECHCG herbicidal rating: postemergence
Summary of the method: as §1

[3] = test system: GLXMAW (Soybean, Williams); assay: Postemergence herbicidal evaluation; format: in vivo, Glycine max, (L.) Merr. cv Williams; settings: for GLXMAW herbicidal rating: postemergence
Summary of the method: as §1

ORYSAT (Rice, Tebonnet) = assay: Postemergence herbicidal evaluation; format: in vivo, Oryza sativa, (L.) Tebonnet; settings: for ORYSAT herbicidal rating: postemergence
Summary of the method: as §1

ZEAMX (Corn, Field) = assay: Postemergence herbicidal evaluation; format: in vivo, Zea mays; settings: for ZEAMX herbicidal rating: postemergence
Summary of the method: as §1

AMBEL (Ragweed, Common) [4] = assay: Preemergence herbicidal evaluation; format: in vivo, Ambrosia artemisifolia; settings: rated 4-5 weeks after treatment
Summary of the method: (§2)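 Preemergence soil application of compound, sprayed in aqueous acetone at rates equivalent to about 0.0156 to 0.500 kg per hectare onto freshly sown cups. Plant response was judged by eye on a 0-9 scale four to five weeks later.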

CASOB (Sicklepod) = assay: Preemergence herbicidal evaluation; format: in vivo, Cassia obtusifolia; settings: rated 4-5 weeks after treatment
Summary of the method: as §2

[5] = test system: CHEAL (Lambsquarters, Common); assay: Preemergence herbicidal evaluation; format: in vivo, Chenopodium album; settings: rated 4-5 weeks after treatment
Summary of the method: as §2

GALAP (Galium) = assay: Preemergence herbicidal evaluation; format: in vivo, Galium aparine; settings: rated 4-5 weeks after treatment
Summary of the method: as §2

CYPSE (Flatsedge) [6] = assay: Preemergence weed control under flooded paddy conditions; format: in vivo, Cyperus serotinus; settings: rated 3-4 weeks after treatment
Summary of the method: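 Herbicidal effect is scored visually on a 0-9 scale against an untreated control, three to four weeks after compounds are pipetted into the flood water (1.5 to 3 cm deep) over seeds planted in silt loam at 0.5 cm depth. Rates: about 0.0313 to 0.500 kg/ha.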

CYPIR (Rice Flatsedge) = assay: Postemergence weed control under flooded paddy conditions; format: in vivo, Cyperus iria; settings: postemergence weeds, 3-4 weeks after treatment
Summary of the method: (§3)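 Weeds 3 to 5 cm tall and rice seedlings at the 1.5 to 2.5 leaf stage were flooded, with water held 1.5 to 3 cm above the soil. Compounds in 50/50 v/v aqueous/acetone went into the flood water at about 0.0313 to 0.500 kg/ha. Visual 0-9 ratings versus control were made 3 to 4 weeks later.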

CYPSE (Flatsedge) [7] = assay: as above; format: in vivo, Cyperus serotinus; settings: postemergence weeds, 3-4 weeks after treatment
Summary of the method: as §3

In the case of `CCOC(=O)CN1C(=O)C(Cc2ccccc2OC)SC1=Nc1cc(-n2c(=O)cc(C(F)(F)F)n(C)c2=O)c(F)cc1Cl` (stereo not shown) [Compound 37, Ethyl 2-{{2-chloro-5-[3,6-dihydro-3-methyl-2,6-dioxo-4-(trifluoromethyl)-1(2H)-pyrimidinyl]-4-fluorophenyl}imino}-5-(o-methoxybenzyl)-4-oxo-3-thiazolidineacetate], the “Postemergence herbicidal rating ABUTH” value (ABUTH (Velvetleaf); Rate 0.0158 kg/ha) is reported as 9.0, the “Postemergence herbicidal rating ABUTH” value (ABUTH (Velvetleaf); Rate 0.0315 kg/ha) is reported as 9.0 and the “Postemergence herbicidal rating ABUTH” value (ABUTH (Velvetleaf); Rate 0.0630 kg/ha) is reported as 9.0. For the same compound, the “Postemergence herbicidal rating AMBEL” value (AMBEL (Ragweed, Common) [1]; Rate 0.0158 kg/ha) was 3.0, the “Postemergence herbicidal rating AMBEL” value (AMBEL (Ragweed, Common) [1]; Rate 0.0315 kg/ha) was 9.0 and the “Postemergence herbicidal rating AMBEL” value (AMBEL (Ragweed, Common) [1]; Rate 0.0630 kg/ha) was 9.0. For the same compound, the “Postemergence herbicidal rating CHEAL” value ([2]; Rate 0.0158 kg/ha) was 3.0, the “Postemergence herbicidal rating CHEAL” value ([2]; Rate 0.0315 kg/ha) was 3.0 and the “Postemergence herbicidal rating CHEAL” value ([2]; Rate 0.0630 kg/ha) was 3.0. For the same compound, the “Postemergence herbicidal rating ECHCG” value (ECHCG (Barnyardgrass); Rate 0.0158 kg/ha) was 0.0, the “Postemergence herbicidal rating ECHCG” value (ECHCG (Barnyardgrass); Rate 0.0315 kg/ha) was 0.0 and the “Postemergence herbicidal rating ECHCG” value (ECHCG (Barnyardgrass); Rate 0.0630 kg/ha) was 0.0. For the same compound, the “Postemergence herbicidal rating GLXMAW” value ([3]; Rate 0.0158 kg/ha) was 4.5, the “Postemergence herbicidal rating GLXMAW” value ([3]; Rate 0.0315 kg/ha) was 5.0 and the “Postemergence herbicidal rating GLXMAW” value ([3]; Rate 0.0630 kg/ha) was 5.0. For the same compound, the “Postemergence herbicidal rating ORYSAT” value (ORYSAT (Rice, Tebonnet); Rate 0.0158 kg/ha) was 0.5, the “Postemergence herbicidal rating ORYSAT” value (ORYSAT (Rice, Tebonnet); Rate 0.0315 kg/ha) was 1.0 and the “Postemergence herbicidal rating ORYSAT” value (ORYSAT (Rice, Tebonnet); Rate 0.0630 kg/ha) was 1.5. For the same compound, the “Postemergence herbicidal rating ZEAMX” value (ZEAMX (Corn, Field); Rate 0.0158 kg/ha) was 3.5, the “Postemergence herbicidal rating ZEAMX” value (ZEAMX (Corn, Field); Rate 0.0315 kg/ha) was 4.0 and the “Postemergence herbicidal rating ZEAMX” value (ZEAMX (Corn, Field); Rate 0.0630 kg/ha) was 4.0. For the same compound, the “Preemergence herbicidal rating AMBEL” value (AMBEL (Ragweed, Common) [4]; rate 0.1250 kg/ha) was 0.0, the “Preemergence herbicidal rating AMBEL” value (AMBEL (Ragweed, Common) [4]; rate 0.2500 kg/ha) was 0.0 and the “Preemergence herbicidal rating CASOB” value (CASOB (Sicklepod); rate 0.1250 kg/ha) was 0.0. For the same compound, the “Preemergence herbicidal rating CASOB” value (CASOB (Sicklepod); rate 0.2500 kg/ha) was 0.0, the “Preemergence herbicidal rating CHEAL” value ([5]; rate 0.1250 kg/ha) was 9.0 and the “Preemergence herbicidal rating CHEAL” value ([5]; rate 0.2500 kg/ha) was 9.0. For the same compound, the “Preemergence herbicidal rating GALAP” value (GALAP (Galium); rate 0.1250 kg/ha) was 0.0, the “Preemergence herbicidal rating GALAP” value (GALAP (Galium); rate 0.2500 kg/ha) was 9.0 and the “Herbicidal rating CYPSE” value (CYPSE (Flatsedge) [6]; 0.0313 kg/ha) was 0.0. For the same compound, the “Herbicidal rating CYPSE” value (CYPSE (Flatsedge) [6]; 0.0625 kg/ha) was 0.0, the “Herbicidal rating CYPSE” value (CYPSE (Flatsedge) [6]; 0.1250 kg/ha) was 0.0 and the “Herbicidal rating CYPSE” value (CYPSE (Flatsedge) [6]; 0.2500 kg/ha) was 0.0. The “Herbicidal rating CYPIR” value (CYPIR (Rice Flatsedge); rate 0.0313 kg/ha) was 0.0, the “Herbicidal rating CYPIR” value (CYPIR (Rice Flatsedge); rate 0.0625 kg/ha) was 0.0 and the “Herbicidal rating CYPIR” value (CYPIR (Rice Flatsedge); rate 0.1250 kg/ha) was 0.0. For the same compound, the “Herbicidal rating CYPIR” value (CYPIR (Rice Flatsedge); rate 0.2500 kg/ha) was 0.0, the “Herbicidal rating CYPSE” value (CYPSE (Flatsedge) [7]; rate 0.0313 kg/ha) was 0.0 and the “Herbicidal rating CYPSE” value (CYPSE (Flatsedge) [7]; rate 0.0625 kg/ha) was 0.0. The “Herbicidal rating CYPSE” value (CYPSE (Flatsedge) [7]; rate 0.1250 kg/ha) was 0.0 and the “Herbicidal rating CYPSE” value (CYPSE (Flatsedge) [7]; rate 0.2500 kg/ha) was 0.0.

`CN(C)N1C(=O)CSC1=Nc1cc(-n2c(=O)cc(C(F)(F)F)n(C)c2=O)c(F)cc1Cl` [Compound 23, 3-{4-Chloro-5-{[3-(dimethylamino)-4-oxo-2-thiazolidinylidine]amino}-2-fluorophenyl}-1-methyl-6-(trifluoromethyl)-2,4(1H,3H)-pyrimidinedione] was tested, and the ABUTH herbicidal rating (ABUTH (Velvetleaf); rate 0.0158 kg/ha) was 3.0, the ABUTH herbicidal rating (ABUTH (Velvetleaf); rate 0.0315 kg/ha) was 4.0 and the ABUTH herbicidal rating (ABUTH (Velvetleaf); rate 0.0630 kg/ha) was 5.0. For the same compound, the AMBEL herbicidal rating (AMBEL (Ragweed, Common) [1]; rate 0.0158 kg/ha) was 2.0, the AMBEL herbicidal rating (AMBEL (Ragweed, Common) [1]; rate 0.0315 kg/ha) was 4.0 and the AMBEL herbicidal rating (AMBEL (Ragweed, Common) [1]; rate 0.0630 kg/ha) was 7.0. It also gave a CHEAL herbicidal rating ([2]; rate 0.0158 kg/ha) of 2.0, a CHEAL herbicidal rating ([2]; rate 0.0315 kg/ha) of 7.0 and a CHEAL herbicidal rating ([2]; rate 0.0630 kg/ha) of 9.0. The ECHCG herbicidal rating (ECHCG (Barnyardgrass); rate 0.0158 kg/ha) was 0.0, the ECHCG herbicidal rating (ECHCG (Barnyardgrass); rate 0.0315 kg/ha) was 2.0 and the ECHCG herbicidal rating (ECHCG (Barnyardgrass); rate 0.0630 kg/ha) was 2.0. For the same compound, the GLXMAW herbicidal rating ([3]; rate 0.0158 kg/ha) was 3.0, the GLXMAW herbicidal rating ([3]; rate 0.0315 kg/ha) was 3.5 and the GLXMAW herbicidal rating ([3]; rate 0.0630 kg/ha) was 5.0. For the same compound, the ORYSAT herbicidal rating (ORYSAT (Rice, Tebonnet); rate 0.0158 kg/ha) was 2.0, the ORYSAT herbicidal rating (ORYSAT (Rice, Tebonnet); rate 0.0315 kg/ha) was 2.5 and the ORYSAT herbicidal rating (ORYSAT (Rice, Tebonnet); rate 0.0630 kg/ha) was 4.5. It also gave a ZEAMX herbicidal rating (ZEAMX (Corn, Field); rate 0.0158 kg/ha) of 3.0, a ZEAMX herbicidal rating (ZEAMX (Corn, Field); rate 0.0315 kg/ha) of 3.5 and a ZEAMX herbicidal rating (ZEAMX (Corn, Field); rate 0.0630 kg/ha) of 5.0. The “AMBEL preemergence herbicidal rating” value (AMBEL (Ragweed, Common) [4]; rate 0.0156 kg/ha) was 0.0, the “AMBEL preemergence herbicidal rating” value (AMBEL (Ragweed, Common) [4]; rate 0.0313 kg/ha) was 0.0 and the “AMBEL preemergence herbicidal rating” value (AMBEL (Ragweed, Common) [4]; rate 0.0625 kg/ha) was 3.0. The “AMBEL preemergence herbicidal rating” value (AMBEL (Ragweed, Common) [4]; rate 0.1250 kg/ha) was 6.0, the “AMBEL preemergence herbicidal rating” value (AMBEL (Ragweed, Common) [4]; rate 0.2500 kg/ha) was 7.0 and the “CASOB preemergence herbicidal rating” value (CASOB (Sicklepod); rate 0.0156 kg/ha) was 0.0. For the same compound, the “CASOB preemergence herbicidal rating” value (CASOB (Sicklepod); rate 0.0313 kg/ha) was 0.0, the “CASOB preemergence herbicidal rating” value (CASOB (Sicklepod); rate 0.0625 kg/ha) was 1.0 and the “CASOB preemergence herbicidal rating” value (CASOB (Sicklepod); rate 0.1250 kg/ha) was 2.0. For the same compound, the “CASOB preemergence herbicidal rating” value (CASOB (Sicklepod); rate 0.2500 kg/ha) was 5.0, the “CHEAL preemergence herbicidal rating” value ([5]; rate 0.0156 kg/ha) was 0.0 and the “CHEAL preemergence herbicidal rating” value ([5]; rate 0.0313 kg/ha) was 1.0. The “CHEAL preemergence herbicidal rating” value ([5]; rate 0.0625 kg/ha) was 7.0, the “CHEAL preemergence herbicidal rating” value ([5]; rate 0.1250 kg/ha) was 9.0 and the “CHEAL preemergence herbicidal rating” value ([5]; rate 0.2500 kg/ha) was 9.0. The “GALAP preemergence herbicidal rating” value (GALAP (Galium); rate 0.0156 kg/ha) was 0.0, the “GALAP preemergence herbicidal rating” value (GALAP (Galium); rate 0.0313 kg/ha) was 1.0 and the “GALAP preemergence herbicidal rating” value (GALAP (Galium); rate 0.0625 kg/ha) was 1.0. The “GALAP preemergence herbicidal rating” value (GALAP (Galium); rate 0.1250 kg/ha) was 0.0, the “GALAP preemergence herbicidal rating” value (GALAP (Galium); rate 0.2500 kg/ha) was 2.0 and the “Herbicidal rating CYPSE” value (CYPSE (Flatsedge) [6]; 0.1160 kg/ha) was 0.0. For the same compound, the “Herbicidal rating CYPSE” value (CYPSE (Flatsedge) [6]; 0.2310 kg/ha) was 0.0, the “Herbicidal rating CYPSE” value (CYPSE (Flatsedge) [6]; 0.4630 kg/ha) was 0.0 and the “Herbicidal rating CYPIR” value (CYPIR (Rice Flatsedge); rate 0.1160 kg/ha) was 0.0. The “Herbicidal rating CYPIR” value (CYPIR (Rice Flatsedge); rate 0.2310 kg/ha) was 0.0, the “Herbicidal rating CYPIR” value (CYPIR (Rice Flatsedge); rate 0.4630 kg/ha) was 0.0 and the “Herbicidal rating CYPSE” value (CYPSE (Flatsedge) [7]; rate 0.1160 kg/ha) was 0.0. The “Herbicidal rating CYPSE” value (CYPSE (Flatsedge) [7]; rate 0.2310 kg/ha) was 0.0 and the “Herbicidal rating CYPSE” value (CYPSE (Flatsedge) [7]; rate 0.4630 kg/ha) was 0.0.
